From ChEMBL document CHEMBL1201862, “PubChem BioAssay data set” (2004)
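Five compound concentrations were applied to cells in 96-well plates for 48 hours; endpoints were derived by simple linear interpolation of the resulting dose-response curve. GI50: concentration for 50% inhibition of growth.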 Active and inactive are the calls of the source. Cut-off read from the data, not from the text of the source: active = GI50 up to about 1.1 µM and inactive = higher.

Legend:
Assay in all cases: NCI tumour cell line growth inhibition, 48 h
786-0 = tested on: 786-0
A498 = tested on: A498
A549 = tested on: A549
ACHN = tested on: ACHN
CAKI-1 = tested on: CAKI-1
CCRF-CEM = tested on: CCRF-CEM
COLO 205 = tested on: COLO 205
DLD-1 = tested on: DLD-1
DMS-114 = tested on: DMS-114
EKVX = tested on: EKVX
HCC 2998 = tested on: HCC 2998
HCT-116 = tested on: HCT-116
HCT-15 = tested on: HCT-15
HL-60 = tested on: HL-60
HOP-18 = tested on: HOP-18
HOP-62 = tested on: HOP-62
HOP-92 = tested on: HOP-92
HT-29 = tested on: HT-29
IGROV-1 = tested on: IGROV-1
K562 = tested on: K562
KM-20L2 = tested on: KM-20L2
KM12 = tested on: KM12
LOX IMVI = tested on: LOX IMVI
M14 = tested on: M14
M19-MEL = tested on: M19-MEL
MOLT-4 = tested on: MOLT-4
Malme-3M = tested on: Malme-3M
NCI-H226 = tested on: NCI-H226
NCI-H23 = tested on: NCI-H23
NCI-H460 = tested on: NCI-H460
NCI-H522 = tested on: NCI-H522
OVCAR-3 = tested on: OVCAR-3
OVCAR-4 = tested on: OVCAR-4
OVCAR-5 = tested on: OVCAR-5
OVCAR-8 = tested on: OVCAR-8
RPMI-8226 = tested on: RPMI-8226
RXF 393 = tested on: RXF 393
RXF 631 = tested on: RXF 631
SF-268 = tested on: SF-268
SF-295 = tested on: SF-295
SF-539 = tested on: SF-539
SK-MEL-28 = tested on: SK-MEL-28
SK-MEL-5 = tested on: SK-MEL-5
SK-OV-3 = tested on: SK-OV-3
SN12C = tested on: SN12C
SNB-19 = tested on: SNB-19
SNB-75 = tested on: SNB-75
SR = tested on: SR
SW-620 = tested on: SW-620
TK-10 = tested on: TK-10
U-251 = tested on: U-251
UACC-257 = tested on: UACC-257
UACC-62 = tested on: UACC-62
UO-31 = tested on: UO-31
XF498 = tested on: XF498
DMS-273 = tested on: DMS-273
LXFL 529 = tested on: LXFL 529
SK-MEL-2 = tested on: SK-MEL-2
SNB-78 = tested on: SNB-78
BT-549 = tested on: BT-549
DU-145 = tested on: DU-145
Hs-578T = tested on: Hs-578T
MCF7 = tested on: MCF7
MDA-MB-231 = tested on: MDA-MB-231
MDA-MB-435 = tested on: MDA-MB-435
MDA-N = tested on: MDA-N
NCI/ADR-RES = tested on: NCI/ADR-RES
PC-3 = tested on: PC-3
T47D = tested on: T47D

Measured: GI50

C(=C\c1cc(CCc2nc3ccccc3[nH]2)n[nH]1)/c1ccccc1
inactive: 786-0 > 100 µM | A498 > 100 µM | A549 > 100 µM | ACHN > 100 µM | CAKI-1 > 100 µM | CCRF-CEM 89.3 µM | COLO 205 > 100 µM | DLD-1 > 100 µM | DMS-114 > 100 µM | EKVX > 100 µM | HCC 2998 > 100 µM | HCT-116 > 100 µM | HL-60 > 100 µM | HOP-18 > 100 µM | HOP-62 > 100 µM | HOP-92 > 100 µM | HT-29 > 100 µM | IGROV-1 > 100 µM | K562 > 100 µM | KM-20L2 > 100 µM | KM12 > 100 µM | LOX IMVI > 100 µM | M14 > 100 µM | M19-MEL > 100 µM | MOLT-4 > 100 µM | Malme-3M > 100 µM | NCI-H226 > 100 µM | NCI-H23 > 100 µM | NCI-H460 > 100 µM | NCI-H522 > 100 µM | OVCAR-3 > 100 µM | OVCAR-4 > 100 µM | OVCAR-5 > 100 µM | OVCAR-8 > 100 µM | RPMI-8226 > 100 µM | RXF 393 > 100 µM | RXF 631 > 100 µM | SF-268 > 100 µM | SF-295 > 100 µM | SF-539 > 100 µM | SK-MEL-28 > 100 µM | SK-MEL-5 > 100 µM | SK-OV-3 > 100 µM | SN12C > 100 µM | SNB-19 > 100 µM | SNB-75 > 100 µM | SR > 100 µM | SW-620 > 100 µM | TK-10 > 100 µM | U-251 > 100 µM | UACC-257 > 100 µM | UACC-62 > 100 µM | UO-31 > 100 µM | XF498 > 100 µM
> 100 µM: HCT-15

C/C(CC(=O)NCCc1ccccc1)=N\NC(=O)C[n+]1ccccc1
> 100 µM: HCT-15
inactive: 786-0 > 100 µM | A498 > 100 µM | A549 > 100 µM | ACHN > 100 µM | CCRF-CEM > 10 µM | COLO 205 > 100 µM | DLD-1 > 100 µM | DMS-114 > 100 µM | DMS-273 > 100 µM | EKVX > 100 µM | HCC 2998 > 100 µM | HCT-116 > 100 µM | HL-60 > 100 µM | HOP-62 > 100 µM | HOP-92 > 100 µM | HT-29 > 100 µM | IGROV-1 > 100 µM | K562 > 100 µM | KM-20L2 > 100 µM | KM12 > 100 µM | LOX IMVI > 100 µM | LXFL 529 > 100 µM | M14 > 100 µM | M19-MEL > 100 µM | MOLT-4 > 100 µM | Malme-3M > 100 µM | NCI-H226 > 100 µM | NCI-H23 > 100 µM | NCI-H460 > 100 µM | NCI-H522 > 100 µM | OVCAR-3 > 100 µM | OVCAR-5 > 100 µM | OVCAR-8 > 100 µM | RPMI-8226 > 100 µM | RXF 393 > 100 µM | RXF 631 > 100 µM | SF-268 > 100 µM | SF-295 > 100 µM | SF-539 > 100 µM | SK-MEL-28 > 100 µM | SK-MEL-2 > 100 µM | SK-MEL-5 > 100 µM | SK-OV-3 > 100 µM | SNB-75 > 100 µM | SNB-78 > 100 µM | SW-620 > 100 µM | TK-10 > 100 µM | U-251 > 100 µM | UACC-257 > 100 µM | UACC-62 > 100 µM | UO-31 > 100 µM | XF498 > 100 µM

O=C(O)CCCc1ccc(N(CCCl)CCCl)cc1 [CHLORAMBUCIL]
inactive: 786-0 30.9 µM | A498 125 µM | A549 61.7 µM | ACHN 14.4 µM | BT-549 112 µM | CAKI-1 17.3 µM | CCRF-CEM 6.31 µM | COLO 205 115 µM | DLD-1 104 µM | DMS-114 45.1 µM | DMS-273 23.7 µM | DU-145 61.4 µM | EKVX 163 µM | HCC 2998 103 µM | HCT-116 106 µM | HL-60 8.22 µM | HOP-18 > 81.1 µM | HOP-62 36.1 µM | HOP-92 63.7 µM | HT-29 130 µM | Hs-578T 189 µM | IGROV-1 115 µM | K562 107 µM | KM-20L2 132 µM | KM12 143 µM | LOX IMVI 40.3 µM | LXFL 529 95.5 µM | M14 62.7 µM | M19-MEL 87.7 µM | MCF7 32.8 µM | MDA-MB-231 156 µM | MDA-MB-435 126 µM | MDA-N 117 µM | MOLT-4 5.78 µM | Malme-3M 70.3 µM | NCI-H226 95.7 µM | NCI-H23 26.6 µM | NCI-H460 14.7 µM | NCI-H522 28.4 µM | NCI/ADR-RES 56.9 µM | OVCAR-3 111 µM | OVCAR-4 136 µM | OVCAR-5 97.1 µM | OVCAR-8 83.2 µM | PC-3 99.3 µM | RPMI-8226 76 µM | RXF 393 33.2 µM | RXF 631 86.9 µM | SF-268 34.9 µM | SF-295 39.2 µM | SF-539 22.9 µM | SK-MEL-28 106 µM | SK-MEL-2 155 µM | SK-MEL-5 88.5 µM | SK-OV-3 110 µM | SN12C 35.5 µM | SNB-19 96.2 µM | SNB-75 54 µM | SR 5.98 µM | SW-620 87.9 µM | T47D 55 µM | TK-10 171 µM | U-251 42.8 µM | UACC-257 93.5 µM | UACC-62 20 µM | UO-31 70.1 µM | XF498 55.1 µM
92.7 µM: HCT-15
